Experimental data reported in patent US5919901A (priority 1996, dated 1999).

Assays:
Adult male Wistar rats = assay: In vivo feeding after ICV injection, rodent chow consumed in 2 hours; design: species or system rat; conditions: for Feeding (g/2 h): rats, ICV, 1-6 nmoles peptide, chow consumed in 2 hours, saline <3 g/2 hours
Method: Adult male Wistar rats were surgically implanted with a chronic intracerebral ventricular (ICV) cannula (Plastic Products, Roanoke, Va.) using a stereotaxic instrument. Several days after the surgery, 1-6 nmoles of each peptide (or saline) was injected into the lateral ventricle of 4-12 rats in a volume of 5-10 μl The quantity of rodent chow consumed in a 2 hour period was measured.

Rat Y4/PP1 (clone) = Rat Y4/PP1 (clone) (Rattus norvegicus, UniProt Q63447); assay: Rat Y4/PP1 [125I]PP binding assay
Chain of Rat Y4/PP1 (clone) (Q63447 whole entry): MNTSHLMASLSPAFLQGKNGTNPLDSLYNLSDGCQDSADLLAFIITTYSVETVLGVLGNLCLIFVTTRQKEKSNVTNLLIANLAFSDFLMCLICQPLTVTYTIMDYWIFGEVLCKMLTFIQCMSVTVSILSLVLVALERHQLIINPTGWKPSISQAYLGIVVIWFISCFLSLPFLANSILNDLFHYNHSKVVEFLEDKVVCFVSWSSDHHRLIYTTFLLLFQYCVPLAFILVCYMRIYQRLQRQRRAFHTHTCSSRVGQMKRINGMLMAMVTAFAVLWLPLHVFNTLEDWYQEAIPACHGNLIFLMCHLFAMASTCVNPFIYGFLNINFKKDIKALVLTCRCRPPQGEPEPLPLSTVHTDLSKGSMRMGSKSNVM

Compound	Feeding (g/2 h) (Adult male Wistar rats)	affinity for the rat Y4/PP1 receptor (Rat Y4/PP1 (clone))	feeding response in rats (Adult male Wistar rats; administered ICV to rats)
CC[C@H](C)[C@H](NC(=O)[C@H](Cc1ccc(O)cc1)NC(=O)[C@H](CCCNC(=N)N)NC(=O)[C@H](CCCNC(=N)N)NC(=O)[C@H](CC(C)C)NC(=O)[C@H](CC(=O)O)NC(=O)[C@H](C)NC(=O)[C@H](C)NC(=O)[C@H](Cc1ccc(O)cc1)NC(=O)[C@H](CCC(N)=O)NC(=O)[C@H](C)NC(=O)[C@H](CCSC)NC(=O)[C@H](CCC(N)=O)NC(=O)[C@H](CCC(=O)O)NC(=O)[C@@H]1CCCN1C(=O)[C@@H](NC(=O)[C@H](C)NC(=O)[C@H](CC(N)=O)NC(=O)[C@H](CC(=O)O)NC(=O)CNC(=O)[C@@H]1CCCN1C(=O)[C@H](Cc1ccc(O)cc1)NC(=O)[C@@H](NC(=O)[C@@H]1CCCN1C(=O)[C@H](CCC(=O)O)NC(=O)[C@H](CC(C)C)NC(=O)[C@@H]1CCCN1C(=O)[C@H](C)N)C(C)C)[C@@H](C)O)C(=O)N[C@@H](CC(N)=O)C(=O)N[C@@H](CCSC)C(=O)N[C@@H](CC(C)C)C(=O)N[C@H](C(=O)N[C@@H](CCCNC(=N)N)C(=O)N1CCC[C@H]1C(=O)N[C@@H](CCCNC(=N)N)C(=O)N[C@@H](Cc1ccc(O)cc1)C(N)=O)[C@@H](C)O [hPP, pancreatic polypeptide]	> 5 g/2 h		
CC[C@H](C)[C@H](NC(=O)[C@H](Cc1ccc(O)cc1)NC(=O)[C@H](Cc1c[nH]cn1)NC(=O)[C@H](CCCNC(=N)N)NC(=O)[C@H](CC(C)C)NC(=O)[C@H](C)NC(=O)[C@@H](N)CO)C(=O)N[C@@H](CC(N)=O)C(=O)N[C@@H](CC(C)C)C(=O)N[C@H](C(=O)N[C@H](C(=O)N[C@@H](CCCNC(=N)N)C(=O)N[C@@H](CCC(N)=O)C(=O)N[C@@H](CCCNC(=N)N)C(=O)N[C@@H](Cc1ccc(O)cc1)C(N)=O)[C@@H](C)O)[C@@H](C)CC [r/h(22-36)NPY, (22-36)NPY]	< 3 g/2 h		
CC[C@H](C)[C@H](NC(=O)[C@H](Cc1ccc(O)cc1)NC(=O)[C@@H](N)Cc1c[nH]cn1)C(=O)N[C@@H](CC(N)=O)C(=O)N[C@@H](CC(C)C)C(=O)N[C@H](C(=O)N[C@H](C(=O)N[C@@H](CCCNC(=N)N)C(=O)N[C@@H](CCC(N)=O)C(=O)N[C@@H](CCCNC(=N)N)C(=O)N[C@@H](Cc1ccc(O)cc1)C(N)=O)[C@@H](C)O)[C@@H](C)CC [r/h(26-36)NPY, (26-36)NPY]	< 3 g/2 h		
CC[C@H](C)[C@H](NC(=O)[C@H](Cc1ccc(O)cc1)NC(=O)[C@H](CCCNC(=N)N)NC(=O)[C@H](CCCNC(=N)N)NC(=O)[C@H](CC(C)C)NC(=O)[C@H](CC(=O)O)NC(=O)[C@H](C)NC(=O)[C@H](C)NC(=O)[C@H](Cc1ccc(O)cc1)NC(=O)[C@H](CCC(N)=O)NC(=O)[C@H](C)NC(=O)[C@H](CCSC)NC(=O)[C@H](CCC(N)=O)NC(=O)[C@H](CCC(=O)O)NC(=O)[C@@H]1CCCN1C(=O)[C@@H](NC(=O)[C@H](C)NC(=O)[C@H](CC(N)=O)NC(=O)[C@H](CC(=O)O)NC(=O)CNC(=O)[C@@H]1CCCN1C(=O)[C@H](Cc1ccc(O)cc1)NC(=O)[C@@H](NC(=O)[C@@H]1CCCN1C(=O)[C@H](CCC(=O)O)NC(=O)[C@H](CC(C)C)NC(=O)[C@@H]1CCCN1C(=O)[C@H](C)N)C(C)C)[C@@H](C)O)C(=O)N[C@@H](CC(N)=O)C(=O)N[C@@H](CCSC)C(=O)N[C@@H](CC(C)C)C(=O)N[C@H](C(=O)N[C@@H](CCCNC(=N)N)C(=O)N1CCC[C@H]1C(=O)N[C@@H](CCCNC(=N)N)C(=O)N[C@@H](Cc1ccc(O)cc1)C(N)=O)[C@@H](C)O [rPP, pancreatic polypeptide]	< 3 g/2 h	very high affinity	does not induce much feeding
